In the assay the target is T1, SARM1 (50-724) (Homo sapiens, UniProt Q6SZW1).
T1 construct: Purified SARM1 (50-724) with a final concentration of 2 nM was pre-incubated with a test compound
T1 sequence (Q6SZW1 50-724): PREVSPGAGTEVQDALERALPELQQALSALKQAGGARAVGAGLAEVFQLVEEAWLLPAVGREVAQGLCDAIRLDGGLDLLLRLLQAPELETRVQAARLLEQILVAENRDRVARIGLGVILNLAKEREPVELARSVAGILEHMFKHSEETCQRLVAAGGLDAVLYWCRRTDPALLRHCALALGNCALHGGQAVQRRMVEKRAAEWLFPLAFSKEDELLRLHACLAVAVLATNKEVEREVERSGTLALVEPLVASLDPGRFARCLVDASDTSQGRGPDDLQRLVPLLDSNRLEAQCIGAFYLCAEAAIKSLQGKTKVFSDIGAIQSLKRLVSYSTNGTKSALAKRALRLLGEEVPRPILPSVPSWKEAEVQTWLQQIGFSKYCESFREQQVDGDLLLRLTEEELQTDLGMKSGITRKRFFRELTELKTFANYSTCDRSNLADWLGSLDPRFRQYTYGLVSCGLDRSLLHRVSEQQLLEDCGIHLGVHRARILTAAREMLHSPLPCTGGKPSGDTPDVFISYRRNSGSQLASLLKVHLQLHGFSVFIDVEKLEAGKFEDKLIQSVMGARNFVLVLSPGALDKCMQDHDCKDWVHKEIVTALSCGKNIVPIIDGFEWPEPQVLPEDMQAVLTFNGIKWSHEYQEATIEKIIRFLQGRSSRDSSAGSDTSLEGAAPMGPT
Nature of the assay: SARM1 (50-724) enzymatic assay (LC-MS/MS). Format: biochemical. To be noted: Purified SARM1 (50-724) 2 nM, NMN as activator, NAD+ as substrate, 1 h at room temperature, read-out: IC50 (SARM1 inhibitory activity). Put shortly:
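Reaction buffer was Dulbecco's PBS. Compound and 2 nM human SARM1 (50-724) were pre-incubated 15 min at room temperature, then […] NAD^+ and 200 µM NMN activator were added for 1 h at room temperature. Acetonitrile (70%) stop, LC-MS/MS read-out, IC50 values.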
Turning to `Cn1c(-n2cnnc2-c2nc3cc(C(F)(F)F)ccc3[nH]2)c(C(F)(F)F)ccc1=O` [Compound 284, 1-methyl-5-(trifluoromethyl)-6-(3-(5-(trifluoromethyl)-1H-benzo[d]imidazol-2-yl)-4H-1,2,4-triazol-4-yl)pyridin-2(1H)-one], the IC50 was no more than 100 nM.

Regarding `Fc1cc(C2(F)CC2)cc2nc(-c3nncn3-c3cnccc3C(F)(F)F)[nH]c12` [Compound 285, 7-fluoro-5-(1-fluorocyclopropyl)-2-(4-(4-(trifluoromethyl)pyridin-3-yl)-4H-1,2,4-triazol-3-yl)-1H-benzo[d]imidazole], the IC50 is no more than 100 nM.

`C=C(CF)c1cc(F)c2[nH]c(-c3nncn3-c3cnccc3C(F)(F)F)nc2c1` [Compound 286, 7-fluoro-5-(3-fluoroprop-1-en-2-yl)-2-(4-(4-(trifluoromethyl)pyridin-3-yl)-4H-1,2,4-triazol-3-yl)-1H-benzo[d]imidazole]: the IC50 is no more than 100 nM.

In the case of `FC(F)(F)c1cnc2[nH]c(-c3nncn3-c3cnccc3C(F)(F)F)cc2c1` [Compound 287, 5-(trifluoromethyl)-2-(4-(4-(trifluoromethyl)pyridin-3-yl)-4H-1,2,4-triazol-3-yl)-1H-pyrrolo[2,3-b]pyridine], the IC50 is no more than 100 nM.

Take `CS(=O)(=O)Cc1cccc(OC(F)(F)F)c1-n1cnnc1-c1nc2cc(C(F)(F)F)ccc2[nH]1` [Compound 289, 2-(4-(2-((methylsulfonyl)methyl)-6-(trifluoromethoxy)phenyl)-4H-1,2,4-triazol-3-yl)-5-(trifluoromethyl)-1H-benzo[d]imidazole]: the IC50 is no more than 100 nM.

In the case of `CC1(c2cc(F)c3[nH]c(-c4nncn4-c4cnccc4C(F)(F)F)nc3c2)COC1` [Compound 290, 7-fluoro-5-(3-methyloxetan-3-yl)-2-(4-(4-(trifluoromethyl)pyridin-3-yl)-4H-1,2,4-triazol-3-yl)-1H-benzo[d]imidazole], the IC50 is no more than 100 nM.

Take `FC(F)(F)c1ccc2[nH]c(-c3nncn3-c3cnccc3C(F)(F)F)cc2n1` [Compound 292, 5-(trifluoromethyl)-2-(4-(4-(trifluoromethyl)pyridin-3-yl)-4H-1,2,4-triazol-3-yl)-1H-pyrrolo[3,2-b]pyridine]: the half-maximal inhibitory concentration (IC50) is no more than 100 nM.

For the compound `Fc1cc(OC(F)F)cc2nc(-c3nncn3-c3cnccc3C(F)(F)F)[nH]c12` [Compound 293, 5-(difluoromethoxy)-7-fluoro-2-(4-(4-(trifluoromethyl)pyridin-3-yl)-4H-1,2,4-triazol-3-yl)-1H-benzo[d]imidazole], the IC50 was no more than 100 nM.

In the case of `FC(F)(F)Oc1cnc(C2CCO2)cc1-n1cnnc1-c1nc2cc(C(F)(F)F)ccc2[nH]1` (centres unmarked) [Compound 294, 2-(4-(2-(oxetan-2-yl)-5-(trifluoromethoxy)pyridin-4-yl)-4H-1,2,4-triazol-3-yl)-5-(trifluoromethyl)-1H-benzo[d]imidazole], the half-maximal inhibitory concentration (IC50) was no more than 100 nM.

For `OCCc1cccc(OC(F)(F)F)c1-n1cnnc1-c1nc2cc(C(F)(F)F)ccc2[nH]1` [Compound 295, 2-(3-(trifluoromethoxy)-2-(3-(5-(trifluoromethyl)-1H-benzo[d]imidazol-2-yl)-4H-1,2,4-triazol-4-yl)phenyl)ethan-1-ol], the IC50 is no more than 100 nM.

For the compound `FC(F)(F)c1ccc2[nH]c(-c3ccnnc3-c3cccc(Cl)c3Cl)nc2c1` [Compound 296, 2-(3-(2,3-dichlorophenyl)pyridazin-4-yl)-5-(trifluoromethyl)-1H-benzo[d]imidazole], the IC50 is 100 to 500 nM.

As for `CN(C)c1cc(F)c2[nH]c(-c3nncn3-c3cnccc3C(F)(F)F)nc2c1` [Compound 297, 7-fluoro-N,N-dimethyl-2-(4-(4-(trifluoromethyl)pyridin-3-yl)-4H-1,2,4-triazol-3-yl)-1H-benzo[d]imidazol-5-amine], the half-maximal inhibitory concentration (IC50) is no more than 100 nM.

Regarding `Fc1cc(C2CC2(F)F)cc2nc(-c3nncn3-c3cnccc3C(F)(F)F)[nH]c12` (centres unmarked) [Compound 298, 5-(2,2-difluorocyclopropyl)-7-fluoro-2-(4-(4-(trifluoromethyl)pyridin-3-yl)-4H-1,2,4-triazol-3-yl)-1H-benzo[d]imidazole], the IC50 is no more than 100 nM.

On to `FC(F)(F)c1cc2cc(-c3nncn3-c3cnccc3C(F)(F)F)[nH]c2cn1` [Compound 299, 5-(trifluoromethyl)-2-(4-(4-(trifluoromethyl)pyridin-3-yl)-4H-1,2,4-triazol-3-yl)-1H-pyrrolo[2,3-c]pyridine], for which the IC50 is greater than 1000 nM.

Turning to `Fc1c(C2CC2)cc(F)c2[nH]c(-c3nncn3-c3cnccc3C(F)(F)F)nc12` [Compound 300, 5-cyclopropyl-4,7-difluoro-2-(4-(4-(trifluoromethyl)pyridin-3-yl)-4H-1,2,4-triazol-3-yl)-1H-benzo[d]imidazole], the IC50 was no more than 100 nM.

Turning to `Fc1cc(N2CCC2)cc2nc(-c3nncn3-c3cnccc3C(F)(F)F)[nH]c12` [Compound 301, 5-(azetidin-1-yl)-7-fluoro-2-(4-(4-(trifluoromethyl)pyridin-3-yl)-4H-1,2,4-triazol-3-yl)-1H-benzo[d]imidazole], the IC50 lay in the range of 100 to 500 nM.

As for `FC(F)(F)c1ccc2[nH]c(-c3nnccc3-c3ccncc3C(F)(F)F)nc2c1` [Compound 302, 5-(Trifluoromethyl)-2-(4-(3-(trifluoromethyl)pyridin-4-yl)pyridazin-3-yl)-1H-benzo[d]imidazole], the IC50 lay within 100 to 500 nM.

For `Fc1cc(C(F)(F)F)cc2nc(-c3nnccc3-c3cnccc3C(F)(F)F)[nH]c12` [Compound 303, 7-Fluoro-5-(trifluoromethyl)-2-(4-(4-(trifluoromethyl)pyridin-3-yl)pyridazin-3-yl)-1H-benzo[d]imidazole], the IC50 is no more than 100 nM.

For `FC(F)(F)c1ccc2[nH]c(-c3nccnc3-c3cccc(Cl)c3Cl)nc2c1` [Compound 304, 2-(3-(2,3-dichlorophenyl)pyrazin-2-yl)-5-(trifluoromethyl)-1H-benzo[d]imidazole], the IC50 lay within 500 to 1000 nM.

Consider `FC(F)(F)c1ccc2[nH]c(-c3cccn3-c3nnccc3C(F)(F)F)nc2c1` [Compound 305, 5-(Trifluoromethyl)-2-(1-(4-(trifluoromethyl)pyridazin-3-yl)-1H-pyrrol-2-yl)-1H-benzo[d]imidazole], for which the IC50 is no more than 100 nM.

`FC(F)c1nnc(-c2nc3cc(C(F)(F)F)ccc3[nH]2)n1-c1cnccc1C(F)(F)F` [Compound 306, 2-(5-(difluoromethyl)-4-(4-(trifluoromethyl)pyridin-3-yl)-4H-1,2,4-triazol-3-yl)-5-(trifluoromethyl)-1H-benzo[d]imidazole]: the IC50 was no more than 100 nM.

On to `FC(F)(F)c1ccc2[nH]c(-c3nncnc3-c3cccc(Cl)c3Cl)nc2c1` [Compound 307, 2-(5-(2,3-dichlorophenyl)-1,2,4-triazin-6-yl)-5-(trifluoromethyl)-1H-benzo[d]imidazole], for which the IC50 was no more than 100 nM.

Consider `CCn1ccc2[nH]c(-c3nncn3-c3cccc(F)c3Cl)cc2c1=O` [Compound 308, 2-(4-(2-chloro-3-fluorophenyl)-4H-1,2,4-triazol-3-yl)-5-ethyl-1,5-dihydro-4H-pyrrolo[3,2-c]pyridin-4-one], for which the IC50 lay within 100 to 500 nM.

As for `FC(F)(F)c1ccc2[nH]c(-c3nncn3-c3c(C(F)(F)F)ccn4nccc34)nc2c1` [Compound 309, 5-(trifluoromethyl)-2-(4-(5-(trifluoromethyl)pyrazolo[1,5-a]pyridin-4-yl)-4H-1,2,4-triazol-3-yl)-1H-benzo[d]imidazole], the IC50 was no more than 100 nM.

For the compound `FC(F)(F)c1ccc2[nH]c(-c3ncncc3-c3cccc(Cl)c3Cl)nc2c1` [Compound 310, 2-(5-(2,3-dichlorophenyl)pyrimidin-4-yl)-5-(trifluoromethyl)-1H-benzo[d]imidazole], the IC50 is greater than 1000 nM.

For the compound `FC(F)(F)c1ccc2[nH]c(-c3nncn3-c3cn4nccc4cc3C(F)(F)F)nc2c1` [Compound 311, 5-(trifluoromethyl)-2-(4-(5-(trifluoromethyl)pyrazolo[1,5-a]pyridin-6-yl)-4H-1,2,4-triazol-3-yl)-1H-benzo[d]imidazole], the IC50 lay in the range of 100 to 500 nM.

As to `FC(F)(F)c1ccc2[nH]c(-c3cccn3-c3nccnc3C(F)(F)F)nc2c1` [Compound 313], the IC50 was in the range of 500 to 1000 nM.

Consider `Fc1c(C2CC(F)(F)C2)ccc2[nH]c(-c3nncn3-c3cnccc3C(F)(F)F)nc12` [Compound 314, 5-(3,3-difluorocyclobutyl)-4-fluoro-2-(4-(4-(trifluoromethyl)pyridin-3-yl)-4H-1,2,4-triazol-3-yl)-1H-benzo[d]imidazole], for which the IC50 was no more than 100 nM.

For `FC(F)(F)c1ccc2[nH]c(-n3nncc3-c3cccc(Cl)c3Cl)nc2c1` [Compound 315, 2-(5-(2,3-dichlorophenyl)-1H-1,2,3-triazol-1-yl)-5-(trifluoromethyl)-1H-benzo[d]imidazole], the IC50 was no more than 100 nM.

For orientation: IC50 means the concentration at which inhibition is half-maximal.

Values taken from US20260258064A1 (SIRONAX LTD., priority 2023, published 2026).
